According to patent US20110105389A1 (priority 2009, published 2011):
Like-named read-outs stand apart in the source and are kept apart here.

Legend:
[1] = Caco-2 permeability, Method B7; format: in vitro ADME, human; conditions: human; for Papp A→B at 60 min, 10 μM / Papp B→A at 60 min, 10 μM: Caco-2, 10 μM, without P-gp inhibitor; for efflux ratio at 60 min, 10 μM: Caco-2, without P-gp inhibitor, read-out: Efflux ratio Papp B2A/Papp A2B
Description: B7. Determination of Caco-2 Permeability
The Caco-2 cell line, derived from a human colorectal carcinoma, has become an established in vitro model for the prediction of drug absorption across the human intestine. (Sun, D.; Yu, L. X.; Hussain, M. A.; Wall, D. A.; Smith, R. L.; Amidon, G. L. Curr. Opin. Drug Discov. Devel. 2004, 7, 75-85; Bergstrom, C. A. Basic Clin. Pharmacol. Toxicol. 2005, 96, 156-61; Balimane, P. V.; Han, Y. H.; Chong, S. AAPS J. 2006, 8, E1-13; Shah, P.; Jogani, V.; Bagchi, T.; Misra, A. Biotechnol. Prog. 2006, 22, 186-198.) When cultured on semi-permeable membranes, Caco-2 cells differentiate into a highly functionalized epithelial barrier with remarkable morphological and biochemical similarity to the small intestinal columnar epithelium. Fully differentiated cell monolayers can be used to assess the membrane transport properties of novel compounds.
Assays to determine the permeability of compounds of the invention utilizing Caco-2 cells are commercially available, for example NoAb BioDiscoveries (Mississaugua, ON, Canada) and Absorption Systems (Exton, Pa., USA).
Permeability across the Caco-2 cell layer was determined by growing the cells on a membrane placed between two (donor and acceptor) chambers. Drug candidates are typically added to the apical (A) side of the cell layer and their appearance in the basolateral (B) side is measured over incubation time. Permeability in this direction represents intestinal absorption. Permeability may also be determined from the basolateral to the apical side of the Caco-2 cell. […]
Permeability (10 μM) for compounds of the invention in the apical to basolateral and basolateral to apical direction were tested in duplicate. Samples will be collected from the donor and acceptor chambers at the beginning (0 min) and following 60 min of incubation at 37° C. and stored frozen at −70° C. until bioanalysis. Samples for each test compound generated from the Caco-2 permeability assay were further analyzed by LC-MS-MS. The permeability of [^3H]-mannitol and [^3H]-propranolol were determined in parallel as controls.
The permeability coefficient (Papp) of each compound and radiolabeled standard was determined using the following equation: […]
where dQ/dT represents the permeability rate, Ci denotes the initial concentration in the donor compartment, and A represents the surface area of the filter. Ci is determined from the mean concentration of duplicate samples taken prior to addition to the donor compartment. Permeability rates were calculated by plotting the cumulative amount of compound measured in the acceptor compartment over time and determining the slope of the line by linear regression analysis. The duplicate and mean apical to basolateral and basolateral to apical Papp's were reported for each compound and standard. […]

CYP3A4 = CYP3A4 (Homo sapiens, UniProt P08684); assay: Cytochrome P450 inhibition, Method B6 (two substrates); conditions: read-out: IC50 CYP 3A4
hERG channel = molecular target: T1, hERG channel (Homo sapiens, UniProt Q12809); assay: hERG channel inhibition (whole cell IKr currents, HEK293), Method B16; format: cell-based; conditions: in comparison to vehicle (0.1% DMSO) controls, up to 100 μM
T1 construct: expressed in transfected cells; host or cells: HEK293
Description: B16. hERG Channel Inhibition
Direct interactions of compounds with the hERG channel account for the majority of known cases of cardiotoxicity. […]

[2] = Table 4b, midazolam used as substrate
[3] = Table 4a, nifedipine used as substrate

Chain of CYP3A4 (P08684 whole entry): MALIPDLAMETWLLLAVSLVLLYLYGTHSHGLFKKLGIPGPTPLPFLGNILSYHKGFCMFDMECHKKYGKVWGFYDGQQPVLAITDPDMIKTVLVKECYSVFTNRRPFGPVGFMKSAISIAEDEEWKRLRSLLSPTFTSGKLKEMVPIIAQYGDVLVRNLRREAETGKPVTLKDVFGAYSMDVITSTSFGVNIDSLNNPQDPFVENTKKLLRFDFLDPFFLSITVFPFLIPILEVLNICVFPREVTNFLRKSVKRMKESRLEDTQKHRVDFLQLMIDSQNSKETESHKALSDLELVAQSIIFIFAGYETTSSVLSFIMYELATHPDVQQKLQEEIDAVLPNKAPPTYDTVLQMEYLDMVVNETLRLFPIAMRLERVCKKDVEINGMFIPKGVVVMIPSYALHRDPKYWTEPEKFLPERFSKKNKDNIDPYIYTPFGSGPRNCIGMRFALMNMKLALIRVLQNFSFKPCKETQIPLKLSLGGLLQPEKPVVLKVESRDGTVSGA
T1 sequence (Q12809 whole entry): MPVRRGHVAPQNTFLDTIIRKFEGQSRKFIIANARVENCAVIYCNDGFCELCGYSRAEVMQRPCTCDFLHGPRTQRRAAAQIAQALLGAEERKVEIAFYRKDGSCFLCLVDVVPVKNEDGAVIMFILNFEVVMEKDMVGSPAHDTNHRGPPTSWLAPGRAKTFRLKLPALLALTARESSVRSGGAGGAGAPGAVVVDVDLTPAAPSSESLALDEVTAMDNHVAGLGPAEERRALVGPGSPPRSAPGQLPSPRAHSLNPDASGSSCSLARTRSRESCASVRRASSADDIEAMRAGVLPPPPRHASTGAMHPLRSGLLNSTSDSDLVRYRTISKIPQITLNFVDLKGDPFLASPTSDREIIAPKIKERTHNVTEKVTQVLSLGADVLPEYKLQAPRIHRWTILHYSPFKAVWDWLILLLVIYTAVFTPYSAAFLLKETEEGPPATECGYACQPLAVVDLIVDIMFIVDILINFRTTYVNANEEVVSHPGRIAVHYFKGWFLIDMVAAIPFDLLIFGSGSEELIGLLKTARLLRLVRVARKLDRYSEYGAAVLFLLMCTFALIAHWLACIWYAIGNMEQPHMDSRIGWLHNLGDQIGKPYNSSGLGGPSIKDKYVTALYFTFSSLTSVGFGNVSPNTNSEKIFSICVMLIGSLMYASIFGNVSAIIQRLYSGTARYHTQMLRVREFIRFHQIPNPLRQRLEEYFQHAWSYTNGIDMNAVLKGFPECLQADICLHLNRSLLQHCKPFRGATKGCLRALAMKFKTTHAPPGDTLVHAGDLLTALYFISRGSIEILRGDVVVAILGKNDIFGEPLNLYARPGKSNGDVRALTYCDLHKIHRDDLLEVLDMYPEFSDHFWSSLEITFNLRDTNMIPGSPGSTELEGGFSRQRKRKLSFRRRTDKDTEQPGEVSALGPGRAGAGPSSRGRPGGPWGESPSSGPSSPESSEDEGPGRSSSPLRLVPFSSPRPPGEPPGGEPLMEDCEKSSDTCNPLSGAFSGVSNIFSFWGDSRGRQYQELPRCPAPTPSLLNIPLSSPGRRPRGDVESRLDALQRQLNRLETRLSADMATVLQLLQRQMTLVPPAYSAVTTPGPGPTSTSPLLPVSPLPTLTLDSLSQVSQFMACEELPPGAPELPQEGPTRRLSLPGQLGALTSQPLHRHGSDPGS

Papp A→B at 60 min, 10 μM [1] [×10⁻⁶ cm/s]	Papp B→A at 60 min, 10 μM [1] [×10⁻⁶ cm/s]	efflux ratio at 60 min, 10 μM [1]	IC50 (CYP3A4; [3]) [µM]	SMILES	IC50 (CYP3A4; [2]) [µM]	effect on hERG channel function (hERG channel)
0.11	12	109	–	CC(C)[C@@H]1NCCOc2ccccc2C[C@H](O)[C@@H](C)NC(=O)[C@@H](Cc2cccc(F)c2)NC(=O)[C@H](C(C)O)N(C)C1=O (stereo partly shown) [Compound 1503]	–	–
0.091	26.7	299	–	CC[C@@H]1CCc2ccc(F)cc2OCCN[C@@H](C(C)C)C(=O)N(C)[C@@H](C(C)O)C(=O)N[C@H](Cc2c[nH]c3ccccc23)C(=O)N1 (stereo partly shown) [Compound 1505]	–	–
0.131	41.8	318	–	CC(C)[C@@H]1NCCOc2ccccc2C#C[C@@H](C)NC(=O)[C@@H](Cc2ccccc2)NC(=O)[C@H](C(C)O)N(C)C1=O (stereo partly shown) [Compound 1688]	–	–
–	–	–	–	CC(C)C1NCCOc2cc(F)ccc2C#CCNC(=O)C(Cc2c[nH]c3ccccc23)NC(=O)C(C(C)O)N(C)C1=O (stereo not shown) [Compound 1693]	2.2	–
–	–	–	–	CC(C)[C@@H]1NCCOc2ccccc2C#CCNC(=O)[C@@H](Cc2ccccc2)NC(=O)[C@H](C(C)O)N(C)C1=O (stereo partly shown) [Compound 1712]	–	no significant effect
–	–	–	–	CC(O)[C@H]1C(=O)N[C@H](Cc2c[nH]c3ccccc23)C(=O)N[C@H](C)C#Cc2ccc(F)cc2O[C@H](C)CN[C@@H](C2(C)CC2)C(=O)N1C (stereo partly shown) [Compound 1720]	1.6	–
–	–	–	6	CC(C)[C@@H]1NCC2CCc3cccc(c3O2)CCCNC(=O)[C@@H](Cc2ccccc2)NC(=O)[C@H](C(C)O)N(C)C1=O (stereo partly shown) [Compound 1777]	–	–
0.193	32.7	169	–	CC(O)[C@H]1C(=O)N[C@H](Cc2ccccc2)C(=O)NCCCc2cccc3c2OC(CC3)CN[C@@H](C2CC2)C(=O)N1C (stereo partly shown) [Compound 1778]	–	–
0.099	29.5	297	–	CC[C@@H]1NCC2CCc3cccc(c3O2)CCCNC(=O)[C@@H](Cc2ccccc2)NC(=O)[C@H](C(C)O)N(C)C1=O (stereo partly shown) [Compound 1780]	–	–
–	–	–	6.5	CC(C)[C@@H]1NCCOc2ccccc2C2CCC(C2)NC(=O)[C@@H](Cc2c[nH]c3ccccc23)NC(=O)[C@H](C(C)O)N(C)C1=O (stereo partly shown) [Compound 1843]	–	–
0.266	64.2	241	–	CC(C)[C@@H]1NCCOc2ccccc2C2CCC(C2)NC(=O)[C@@H](Cc2ccccc2)NC(=O)[C@H](C(C)O)N(C)C1=O (stereo partly shown) [Compound 1848]	–	no significant effect
0.097	28	288	–	CC(O)[C@H]1C(=O)N[C@H](Cc2ccccc2)C(=O)NCC#Cc2c(F)cccc2OCCN[C@@H](C2(C)CC2)C(=O)N1C (stereo partly shown) [Compound 1876]	–	–
0.144	21.7	151	–	CC(O)[C@H]1C(=O)N[C@H](Cc2ccccc2)C(=O)NCC#Cc2ccccc2OCCN[C@@H](C2(C)CC2)C(=O)N1C (stereo partly shown) [Compound 1878]	–	–
0.291	58.9	203	–	CC(C)[C@@H]1NCCOc2ccccc2C2CCC(C2)NC(=O)[C@@H](Cc2ccc(F)cc2)NC(=O)[C@H](C(C)O)N(C)C1=O (stereo partly shown) [Compound 1903]	–	–
0.112	42.6	380	–	CC(O)[C@H]1C(=O)N[C@H](Cc2ccccc2)C(=O)NCC#Cc2ccc(F)cc2OCCN[C@@H](C2(C)CC2)C(=O)N1C (stereo partly shown) [Compound 1918]	–	–
0.171	36.9	216	–	CC(C)[C@@H]1NCCOc2cccc(F)c2C#CCNC(=O)[C@@H](Cc2ccccc2)NC(=O)[C@H](C(C)O)N(C)C1=O (stereo partly shown) [Compound 1929]	–	no significant effect
